Among the data in ChEMBL document CHEMBL1149721, “New Alkaloids from Haplophyllum tuberculatum” (J Nat Prod, 1992) are Activity values, retold here.

Calls of active or inactive are those of the source. The calls are words filed in the database; no cut-off is given here.

The test concerns Staphylococcus aureus. In words: Antimicrobial activity against Staphylococcus aureus at 100 ug/ml. It counts as functional, organism-based.
`CC(=O)O[C@@H](CC[C@]1(C)O[C@@H]1COc1ccc(CCNC(=O)c2ccccc2)cc1)C(C)(C)OC(C)=O`: the result was inactive. As to `CC(=O)OC(C)(C)[C@@H]1CC[C@](C)([C@H](O)COc2ccc(CCNC(=O)c3ccccc3)cc2)O1`, the outcome was inactive. Turning to `COc1c2ccoc2nc2c(CC=C(C)C)c(O)ccc12`, the result was inactive. `CC(=O)O[C@@H](CC[C@]1(C)O[C@@H]1COc1ccc(CCNC(=O)C=C(C)C)cc1)C(C)(C)OC(C)=O`: the result was inactive. `CC(=O)O[C@H](COc1ccc(CCNC(=O)c2ccccc2)cc1)[C@@]1(C)CC[C@@H](C(C)(C)OC(C)=O)O1`: the outcome was inactive.
